Common to all, as to type: cell-based
One data set relates to lung cancer cells. Nature of the data set: Cytotoxicity test on lung cancer cells in biochip, static vs dynamic perfusion. The source says:
With reference to FIGS. 12A and 12B, cytotoxicity tests with 5-Fu cancer cell therapeutic drug are presented.

A further data set relates to breast cancer cells. As to the kind of experiment: Cell viability of breast cancer cells in biochip. The note with it: for live cancer cells (cell viability, FIG. 14): after culturing for 3 days, high concentrations. The source says: FIG. 14 is a validation test of cell viability of breast cancer cells treating by couples of cancer therapeutic drugs. […] By such, the present invention can be used to determine which cancer treatment drugs are effective for the patient.
FIG. 15 is an immunohistochemistry corresponded to the test result of Taxol drug in FIG. 14.

For another data set, the system named is GR10 lung cancer cells. Nature of the data set: Cancer cell survival test of target drugs, GR10.
In data set [1] the test system is Hela cervical cancer cells. Nature of the data set: Biochip drug efficacy test on Hela cervical cancer cells. The source says: (§1) The biochip 10 can be first served as a simulation model of a drug screening for cancer. This embodiment is an example of a drug screening for candidate drugs for cervical cancer taking from a target patient. It is worth mentioning that the biochip 10 provided by the present invention, the simulated vascular channel 12 in the preferred embodiment can be used for simulating an in-vivo environment of cervical cancer or breast cancer which these cancer cells are normally metabolized from the blood vessel in real human body. However, by switching the simulated vascular channel 12 into a gas or air flow channel (simulation of human trachea), it can be used as a simulation for lung cancer as another suitable applications for the present invention.
(§2) In this embodiment, when producing the simulated vascular channel 12, the fluid containing endothelial cells will be fluxed for completely adhering, attaching and even starting to be cultured to the inner surface of the simulated vascular channel 12 at 37° C. for one day. Further, the peristaltic pump is connected to circulate as a biosystem. For a single simulated vascular channel 12, it is preferred to have a perfusion rate as 13 μL/min. […]
With reference to FIGS. 8A to 8C, in this embodiment, three different cervical cancer cells are used to perform quantitative and qualitative tests of the efficacy of different cancer therapeutic drugs. […]

The test system of data set [2] is SiHa cervical cancer cells. As to the kind of experiment: Biochip drug efficacy test on SiHa cervical cancer cells. The note with it: compared with 5-Fu and Lipodox.
Excerpt: as §1, §2
(§3) With reference to FIGS. 8A to 8C, in this embodiment, three different cervical cancer cells are used to perform quantitative and qualitative tests of the efficacy of different cancer therapeutic drugs.

For data set [3], the system named is CCC cervical cancer cells. Nature of the data set: Biochip drug efficacy test on CCC cervical cancer cells. The note with it: compared with 5-Fu and Lipodox.
Excerpt: as §1, §2, §3

SMILES strings stand for the structures.

On to `O=c1[nH]cc(F)c(=O)[nH]1` [5-Fu], for which the “cytotoxicity (FIG. 12A)” value in the data set with lung cancer cells (dynamic perfusion compared with static culture) was “cytotoxicity of dynamic perfusion is more remarkable”. In addition, the “dead cancer cells (immunohistochemistry, FIG. 12B)” value in the data set with lung cancer cells (high dose, dynamic culture of perfusion) is recorded as “dead cancer cells are increased”. Turning to `N.N.[Cl][Pt][Cl]` [Cisplatin], in the data set on breast cancer cells, the “live cancer cells (cell viability, FIG. 14)” value (shortened to “live cancer cells”) is listed as “significantly reducing live cancer cells”.

In the case of `C#Cc1cccc(Nc2ncnc3cc(OCCOC)c(OCCOC)cc23)c1` [Erlotinib], in the data set with GR10 lung cancer cells, the “effect on cancer cell survival (FIG. 13B)” value is listed as “drug resistance”. `COc1cc2ncnc(Nc3ccc(F)c(Cl)c3)c2cc1OCCCN1CCOCC1` [Gefitinib]: the “effect on cancer cell survival (FIG. 13B)” value with GR10 lung cancer cells was “drug resistance”.

As for `Nc1ccn([C@@H]2O[C@H](CO)[C@@H](O)C2(F)F)c(=O)n1` [Gemcitabine], in the data set with breast cancer cells, the “live cancer cells” value was “significantly reducing live cancer cells”.

As to `Nc1nc2[nH]cc(CCc3ccc(C(=O)N[C@@H](CCC(=O)O)C(=O)O)cc3)c2c(=O)[nH]1` [Pemetrexed], the “reaction compared with the other drugs (FIG. 14)” value in the data set on breast cancer cells (Taxol, Cisplatin, Gemcitabine vs Pemetrexed) is “These three drugs show better reaction than Pemetrexed”. For `CC(=O)O[C@H]1C(=O)[C@@]2(C)[C@H]([C@H](OC(=O)c3ccccc3)[C@]3(O)C[C@H](OC(=O)[C@H](O)[C@@H](NC(=O)c4ccccc4)c4ccccc4)C(C)=C1C3(C)C)[C@]1(OC(C)=O)CO[C@@H]1C[C@@H]2O` [Taxol], the “cancer cell killing effect (immunohistochemistry, apoptotic cells)” value in data set [1] (7th day) is given as “significant cancer cell killing effect”. In addition, the “cancer cell poisoning effect (bar diagrams, FIG. 8A)” value in data set [1] (compared with 5-Fu and Lipodox) was “better cancer cell poisoning effect among other two drugs”. The “cancer cell poisoning effect (bar diagrams, FIG. 8B)” value in data set [2] is “better cancer cell poisoning effect among other two drugs”. Also, the “cancer cell poisoning effect (bar diagrams, FIG. 8C)” value in data set [3] is “better cancer cell poisoning effect among other two drugs”. Further, in the data set with breast cancer cells, the “dead cancer cells (immunohistochemistry, FIG. 15)” value is “more and more dead cancer cells are shown”; the “live cancer cells” value is given as “significantly reducing live cancer cells”.

The values are drawn from US20230011168A1, “Bio-Chips and Production Method Thereof” (China Medical University, priority 2021, published 2023).
